# From patent US4507297A, “Piperazine derivatives and a medicine containing the same” (priority 1981, dated 1985)
# Structures can show the parent of a compound that is named as a salt. Where two headings read alike, the source gives them in different places.
# Columns and labels:
# [1] = test system: experimental myocardial infarction; test: Effects against an experimental myocardial infarction (anterior descending artery ligation, necrotic area by planimetry); format: in vivo, rabbit; conditions: for inhibition in vivo at 200 mg/kg: read-out: Inhibition rates (%), T = 200 mg/kg, i.v.
# Procedure: The chest wall of each animal was incised under artificial respiration, and the anterior descending artery was ligated (about 7 mm downward of the starting portion). 24 Hours later, the heart was taken out, and a myocardium between the cadiac apex and the ligated portion was sliced to have a thickness of 2 mm and stained to distinguish the infarction-affected portions by a phosphorylase reaction, whereupon the area of the necrotic portion was calculated by planimetory. Medicinal substances were administered 5 minutes prior to the ligation (T/2 mg/kg, i.v.), continuously from immediately after the ligation to one hour later (T/4 mg/kg/hr, by constant dropping), 2 hours after the ligation (T/8 mg/kg, i.v.) and 3 hours after the ligation (T/8 mg/kg, i.v.). Each medicinal substance was administered in the form of a physiological sodium chloride solution. Where the substance was hardly soluble, it was used in the form of a salt. To a control group was administered only a physiological sodium chloride solution. (T means a total amount of administration.)
# in vivo = conditions: mouse, in vivo, iv, tail of mice
# Procedure: (§1) Medicinal substances were administered intravenously from the tails of the mice.
# mice = test: in vivo; conditions: i.v., tail of mice
# Procedure: as §1
# [2] = Oryctolagus cuniculus, iv, 24 h, T = 40 mg/kg, i.v., vs control 14.1 ± 1.0, read-out: Inhibition rates (%)
# [3] = T = 40 mg/kg, i.v., 8 cases, control 14.1 ± 1.0
# [4] = Oryctolagus cuniculus, iv, 24 h, vs control 14.9 ± 0.7
# [5] = T = 200 mg/kg, i.v., 8 cases, control 14.9 ± 0.7
# [6] = Oryctolagus cuniculus, iv, 24 h, vs control 14.1 ± 1.0
# [7] = T = 200 mg/kg, i.v., 8 cases, control 14.1 ± 1.0
compound,measurement,setting,value
"CCOC(=O)[C@H]1O[C@@H]1C(=O)N[C@@H](CC(C)C)C(=O)N1CCN(Cc2ccc(OC)c(OC)c2OC)CC1 [Compound 12, Ethyl (2S,3S)-3-[(s)-3-methyl-1-{4-(2,3,4-trimethoxyphenylmethyl)piperazine-1-ylcarbonyl}butylcarbamoyl]oxirane-2-carboxylate 1/2 sulfate]",inhibition in vivo at 40 mg/kg,[1]; [2],19.9%
same,Necrotic area (mean ± S.E. %),[1]; [3],11.3 ± 1.2%
same,LD50,in vivo,345 mg/kg
CCN1CCN(C(=O)[C@H](CC(C)C)NC(=O)[C@@H]2O[C@H]2C(=O)[O-])CC1.[Na+],inhibition in vivo at 200 mg/kg,[1]; [4],20.8%
same,Necrotic area (mean ± S.E. %),[1]; [5],11.8 ± 0.9%
same,MLD (in column LD50 mice),mice,> 1125 mg/kg
CC(C)C[C@H](NC(=O)[C@@H]1O[C@H]1C(=O)[O-])C(=O)N1CCN(c2ncccn2)CC1.[Na+] [listing 1 of 2 here],inhibition in vivo at 200 mg/kg,[1]; [4],25.5%
same,Necrotic area (mean ± S.E. %),[1]; [5],11.1 ± 0.8%
same,MLD (in column LD50 mice),mice,> 1125 mg/kg
COc1ccc(CN2CCN(C(=O)[C@H](CC(C)C)NC(=O)[C@@H]3O[C@H]3C(=O)[O-])CC2)c(OC)c1OC.[Na+] [listing 1 of 2 here],inhibition in vivo at 200 mg/kg,[1]; [4],29.5%
same,Necrotic area (mean ± S.E. %),[1]; [5],10.5 ± 0.9%
same,MLD (in column LD50 mice),mice,> 1125 mg/kg
"CC(C)NCC(O)COc1cccc2ccccc12 (stereo not drawn) [Propranolol hydrochloride, reference compound]",inhibition in vivo at 1 mg/kg,"[1]; Oryctolagus cuniculus, iv, 24 h, T = 1 mg/kg, i.v., vs control 14.6 ± 1.0, read-out: Inhibition rates (%)",6.2%
same,inhibition in vivo at 2 mg/kg,"[1]; Oryctolagus cuniculus, iv, 24 h, T = 2 mg/kg, i.v., vs control 14.6 ± 1.0, read-out: Inhibition rates (%)",23.3%
same,inhibition in vivo at 4 mg/kg,"[1]; Oryctolagus cuniculus, iv, 24 h, T = 4 mg/kg, i.v., vs control 14.6 ± 1.0, read-out: Inhibition rates (%)",26.7%
same,Necrotic area (mean ± S.E. %),"[1]; T = 1 mg/kg, i.v., 8 cases, control 14.6 ± 1.0",13.7 ± 1.1%
"COc1ccc(CN2CCN(C(=O)[C@H](CC(C)C)NC(=O)C3OC3C(=O)OCC(C)C)CC2)c(OC)c1OC (stereo partly drawn) [Compound 9, Isobutyl trans-3-[(s)-3-methyl-1-{4-(2,3,4-trimethoxyphenylmethyl)piperazine-1-ylcarbonyl}butylcarbamoyl]oxirane-2-carboxylate 1/2 sulfate]",inhibition in vivo at 40 mg/kg,[1]; [2],18.4%
same,Necrotic area (mean ± S.E. %),[1]; [3],11.5 ± 1.2%
same,LD50,in vivo,440 mg/kg
CC(C)C[C@H](NC(=O)[C@@H]1O[C@H]1C(=O)[O-])C(=O)N1CCN(c2ncccn2)CC1.[Na+] [listing 2 of 2 here],inhibition in vivo at 200 mg/kg,[1]; [6],23%
same,Necrotic area (mean ± S.E. %),[1]; [7],11.1 ± 0.7%
CC(C)C[C@H](NC(=O)[C@H]1O[C@@H]1C(=O)[O-])C(=O)N1CCN(c2ncccn2)CC1.[Na+],inhibition in vivo at 200 mg/kg,[1]; [6],26%
same,Necrotic area (mean ± S.E. %),[1]; [7],10.7 ± 0.4%
same,MLD (in column LD50 mice),mice,> 1125 mg/kg
COc1ccc(CN2CCN(C(=O)[C@H](CC(C)C)NC(=O)[C@@H]3O[C@H]3C(=O)[O-])CC2)c(OC)c1OC.[Na+] [listing 2 of 2 here],inhibition in vivo at 200 mg/kg,[1]; [6],30.5%
same,Necrotic area (mean ± S.E. %),[1]; [7],9.8 ± 0.9%
"COc1ccc(CCN(C)CCCC(C#N)(c2ccc(OC)c(OC)c2)C(C)C)cc1OC (racemic) [Verapanil hydrochloride, reference compound]",inhibition in vivo at 2 mg/kg,"[1]; Oryctolagus cuniculus, iv, 24 h, read-out: Inhibition rates (%), T = 2 mg/kg, i.v., vs control 14.6 ± 1.0",24.7%
same,Necrotic area (mean ± S.E. %),"[1]; T = 2 mg/kg, i.v., 7 cases (propranolol), 10 cases (verapanil), control 14.6 ± 1.0",11.0 ± 1.3%
CC(C)C[C@H](NC(=O)[C@@H]1O[C@H]1C(=O)[O-])C(=O)N1CCN(Cc2ccccc2)CC1.[Na+],inhibition in vivo at 200 mg/kg,[1]; [4],20.1%
same,Necrotic area (mean ± S.E. %),[1]; [5],11.9 ± 0.6%
same,MLD (in column LD50 mice),mice,> 1125 mg/kg
CC(C)C[C@H](NC(=O)[C@@H]1O[C@H]1C(=O)[O-])C(=O)N1CCN(CC=Cc2ccccc2)CC1.[Na+],inhibition in vivo at 100 mg/kg,"[1]; Oryctolagus cuniculus, iv, 24 h, read-out: Inhibition rates (%), T = 100 mg/kg, i.v., vs control 14.9 ± 0.7",25.5%
same,Necrotic area (mean ± S.E. %),"[1]; T = 100 mg/kg, i.v., 8 cases, control 14.9 ± 0.7",11.1 ± 0.6%
same,MLD (in column LD50 mice),mice,1000 to 1125 mg/kg
CC(C)C[C@H](NC(=O)[C@@H]1O[C@H]1C(=O)[O-])C(=O)N1CCN(c2ccccn2)CC1.[Na+],inhibition in vivo at 200 mg/kg,[1]; [4],22.1%
same,Necrotic area (mean ± S.E. %),[1]; [5],11.6 ± 0.7%
same,MLD (in column LD50 mice),mice,> 1125 mg/kg
"CCOC(=O)[C@@H]1O[C@H]1C(=O)N[C@@H](CC(C)C)C(=O)N1CCN(Cc2ccc(OC)c(OC)c2OC)CC1 [Compound 11, Ethyl (2R,3R)-3-[(s)-3-methyl-1-{4-(2,3,4-trimethoxyphenylmethyl)piperazine-1-ylcarbonyl}butylcarbamoyl]oxirane-2-carboxylate 1/2 sulfate]",inhibition in vivo at 40 mg/kg,[1]; [2],29.1%
same,Necrotic area (mean ± S.E. %),[1]; [3],10.0 ± 1.0%
same,LD50,in vivo,374 mg/kg
COc1ccc(CN2CCN(C(=O)[C@H](CC(C)C)NC(=O)[C@@H]3O[C@H]3C(=O)[O-])CC2)cc1.[Na+],inhibition in vivo at 200 mg/kg,[1]; [4],20.1%
same,Necrotic area (mean ± S.E. %),[1]; [5],11.9 ± 0.8%
same,MLD (in column LD50 mice),mice,> 1125 mg/kg
CC(C)C[C@H](NC(=O)C1OC1C(=O)O)C(=O)N1CCN(C(c2ccccc2)c2ccccc2)CC1 (stereo partly drawn) [Compound 1],inhibition in vivo at 80 mg/kg,"[1]; Oryctolagus cuniculus, iv, 24 h, T = 80 mg/kg, i.v., vs control 14.9 ± 0.7, read-out: Inhibition rates (%)",24.8%
same,Necrotic area (mean ± S.E. %),"[1]; T = 80 mg/kg, i.v., 8 cases, control 14.9 ± 0.7",11.2 ± 0.5%
same,LD50,in vivo,174 mg/kg
"CCOC(=O)C1OC1C(=O)N[C@@H](CC(C)C)C(=O)N1CCN(Cc2ccc(OC)c(OC)c2OC)CC1 (stereo partly drawn) [Compound 10, Ethyl trans-3-[(s)-3-methyl-1-{4-(2,3,4-trimethoxyphenylmethyl)piperazine-1-ylcarbonyl}butylcarbamoyl]oxirane-2-carboxylate 1/2 sulfate]",inhibition in vivo at 40 mg/kg,[1]; [2],25.5%
same,Necrotic area (mean ± S.E. %),[1]; [3],10.5 ± 1.1%
COc1ccc(CN2CCN(C(=O)[C@H](CC(C)C)NC(=O)[C@H]3O[C@@H]3C(=O)[O-])CC2)c(OC)c1OC.[Na+],inhibition in vivo at 200 mg/kg,[1]; [6],24.1%
same,Necrotic area (mean ± S.E. %),[1]; [7],10.7 ± 0.9%
same,MLD (in column LD50 mice),mice,> 1125 mg/kg
